Test results: patent US20260242353A1, “HETEROARYL DERIVATIVES AS DDRs INHIBITORS” (CHIESI FARMACEUTICI S.P.A., priority 2022, published 2026)

Columns and labels:
[1] = molecular target: T1, DDR2 (Homo sapiens, UniProt Q16832); experiment: LanthaScreen Europium Kinase Binding assay, DDR2; settings: 5 nM DDR2, 10 nM Kinase Tracer 178, 1 h at rt; Ki from IC50 by Cheng-Prusoff; read-out: Ki DDR2
T1 construct: purchased Life Technologies
T1 sequence (Q16832 22-855): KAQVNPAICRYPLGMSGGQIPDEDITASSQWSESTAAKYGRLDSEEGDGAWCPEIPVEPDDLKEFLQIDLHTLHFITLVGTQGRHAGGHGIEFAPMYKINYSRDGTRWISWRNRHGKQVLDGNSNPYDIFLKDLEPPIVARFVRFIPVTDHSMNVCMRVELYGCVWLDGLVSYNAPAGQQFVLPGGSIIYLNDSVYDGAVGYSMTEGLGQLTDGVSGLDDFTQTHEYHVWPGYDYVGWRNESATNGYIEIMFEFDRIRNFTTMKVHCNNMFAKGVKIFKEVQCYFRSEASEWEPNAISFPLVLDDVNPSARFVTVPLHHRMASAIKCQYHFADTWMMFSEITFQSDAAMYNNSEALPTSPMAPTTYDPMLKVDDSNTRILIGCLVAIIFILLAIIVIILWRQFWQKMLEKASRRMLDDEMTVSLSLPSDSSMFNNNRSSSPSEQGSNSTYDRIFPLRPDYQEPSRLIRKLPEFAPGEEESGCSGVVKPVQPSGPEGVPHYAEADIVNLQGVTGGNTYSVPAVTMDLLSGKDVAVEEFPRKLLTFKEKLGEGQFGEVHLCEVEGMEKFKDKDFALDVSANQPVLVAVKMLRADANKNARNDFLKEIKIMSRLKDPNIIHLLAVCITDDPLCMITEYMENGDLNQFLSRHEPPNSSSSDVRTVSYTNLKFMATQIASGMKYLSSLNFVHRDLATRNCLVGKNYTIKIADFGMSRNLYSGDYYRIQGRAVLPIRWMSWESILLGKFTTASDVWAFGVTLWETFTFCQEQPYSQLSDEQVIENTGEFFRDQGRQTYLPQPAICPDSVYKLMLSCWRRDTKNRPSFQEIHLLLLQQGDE
Procedure: (§1) DDR1 and DDR2 binding assays were performed using Life Technologies LanthaScreen™ Europium Kinase Binding assay. The compounds were incubated with 5 nM DDR1 (Carna Biosciences) or 5 nM DDR2 (Life Technologies) for 1 h at rt in white 384-well OptiPlate (PerkinElmer), containing 20 nM or 10 nM Kinase Tracer 178 respectively and 2 nM Europium labelled anti-GST antibody (Life Technologies) in assay buffer (50 mM HEPES pH 7.5, 10 mM MgCI2, 1 mM EGTA and 0.01% BRIJ35). The ratio of fluorescence emission 665 nm/615 nm after excitation at 340 nm was obtained using the Tecan Spark 20M plate reader. IC50 values were determined in GraphPad Prism 7.0 software, using 4 parameter model: log(inhibitor) vs. response. IC50 values were converted in Ki using the Cheng-Prusoff equation (Ki=IC50/(1+[Tracer]/Kd).

[2] = molecular target: T2, DDR1 (Homo sapiens, UniProt Q08345); experiment: LanthaScreen Europium Kinase Binding assay, DDR1; settings: 5 nM DDR1, 20 nM Kinase Tracer 178, 1 h at rt; Ki from IC50 by Cheng-Prusoff; read-out: Ki DDR1
T2 construct: purchased Carna Biosciences
Procedure: as §1

T2 sequence (Q08345 19-913): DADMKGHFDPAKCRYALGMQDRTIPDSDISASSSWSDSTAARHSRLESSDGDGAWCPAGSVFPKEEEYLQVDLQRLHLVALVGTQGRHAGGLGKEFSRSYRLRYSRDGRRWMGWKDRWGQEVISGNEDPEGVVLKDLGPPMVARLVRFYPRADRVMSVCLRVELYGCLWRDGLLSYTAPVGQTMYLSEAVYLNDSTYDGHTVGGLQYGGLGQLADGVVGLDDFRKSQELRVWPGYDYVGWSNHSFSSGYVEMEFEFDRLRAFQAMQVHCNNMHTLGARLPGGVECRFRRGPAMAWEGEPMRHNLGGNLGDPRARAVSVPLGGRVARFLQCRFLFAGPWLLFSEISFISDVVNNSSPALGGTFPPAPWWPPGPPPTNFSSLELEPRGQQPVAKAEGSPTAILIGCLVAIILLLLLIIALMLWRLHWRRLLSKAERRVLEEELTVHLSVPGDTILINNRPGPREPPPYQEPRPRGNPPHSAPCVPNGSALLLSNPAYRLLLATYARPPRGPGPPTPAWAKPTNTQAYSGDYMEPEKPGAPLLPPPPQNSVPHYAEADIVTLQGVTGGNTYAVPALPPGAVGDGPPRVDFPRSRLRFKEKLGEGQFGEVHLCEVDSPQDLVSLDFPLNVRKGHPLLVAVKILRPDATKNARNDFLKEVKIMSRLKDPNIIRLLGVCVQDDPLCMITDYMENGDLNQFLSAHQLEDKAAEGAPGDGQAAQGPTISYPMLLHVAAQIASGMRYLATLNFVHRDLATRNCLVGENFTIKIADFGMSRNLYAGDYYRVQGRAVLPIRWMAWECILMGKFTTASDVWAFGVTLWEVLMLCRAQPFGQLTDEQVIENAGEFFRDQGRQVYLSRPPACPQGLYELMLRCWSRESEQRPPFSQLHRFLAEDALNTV

Row | SMILES | Ki [1] [nM] | Ki [2] [nM]
1 | Cc1ccc(C(=O)Nc2cncc(C(F)(F)F)c2)cc1[C@@H]1CCN(c2cncc(C(=O)NCCN(C)C)c2)C1 [Example 23, (S)-N-(2-(dimethylamino)ethyl)-5-(3-(2-methyl-5-((5-(trifluoromethyl)pyridin-3-yl)carbamoyl)phenyl)pyrrolidin-1-yl)nicotinamide] | 5 to 25 | < 5
2 | COCCNC(=O)c1cncc(N2CC[C@@H](c3cc(C(=O)Nc4cncc(C(F)(F)F)c4)ccc3C)C2)c1 [Example 24, (S)-N-(2-methoxyethyl)-5-(3-(2-methyl-5-((5-(trifluoromethyl)pyridin-3-yl)carbamoyl)phenyl)pyrrolidin-1-yl)nicotinamide] | < 5 | < 5
3 | COc1ncc(N2CC[C@@H](c3cc(C(=O)Nc4cncc(C(F)(F)F)c4)ccc3C)C2)cn1 [Example 25, (S)-3-(1-(2-methoxypyrimidin-5-yl)pyrrolidin-3-yl)-4-methyl-N-(5-(trifluoromethyl)pyridin-3-yl)benzamide] | 5 to 25 | < 5
4 | Cc1ccc(C(=O)Nc2cncc(C(F)(F)F)c2)cc1[C@@H]1CCN(c2cncc(C#N)c2)C1 [Example 27, (S)-3-(1-(5-cyanopyridin-3-yl)pyrrolidin-3-yl)-4-methyl-N-(5-(trifluoromethyl)pyridin-3-yl)benzamide] | < 5 | < 5
5 | CC(=O)Nc1cncc(N2CC[C@@H](c3cc(C(=O)Nc4cncc(C(F)(F)F)c4)ccc3C)C2)c1 [Example 28, (S)-3-(1-(5-acetamidopyridin-3-yl)pyrrolidin-3-yl)-4-methyl-N-(5-(trifluoromethyl)pyridin-3-yl)benzamide] | < 5 | < 5
6 | CNC(=O)c1cncc(N2CC[C@@H](c3cc(C(=O)Nc4cncc(C(F)(F)F)c4)ccc3C)C2)c1 [Example 29, (S)-N-methyl-5-(3-(2-methyl-5-((5-(trifluoromethyl)pyridin-3-yl)carbamoyl)phenyl)pyrrolidin-1-yl)nicotinamide] | < 5 | < 5
7 | Cc1ccc(C(=O)Nc2cncc(C(F)(F)F)c2)cc1[C@@H]1CCN(c2cncc(C(=O)NCCO)c2)C1 [Example 30, (S)-N-(2-hydroxyethyl)-5-(3-(2-methyl-5-((5-(trifluoromethyl)pyridin-3-yl)carbamoyl)phenyl)pyrrolidin-1-yl)nicotinamide] | 5 to 25 | < 5
8 | Cc1ccc(C(=O)Nc2cncc(C(F)(F)F)c2)cc1[C@@H]1CCN(c2cnn3ccncc23)C1 [Example 32, (S)-4-methyl-3-(1-(pyrazolo[1,5-a]pyrazin-3-yl)pyrrolidin-3-yl)-N-(5-(trifluoromethyl)pyridin-3-yl)benzamide] | < 5 | < 5
9 | Cc1ccc(C(=O)Nc2cncc(C(F)(F)F)c2)cc1[C@@H]1CCN(c2cnccn2)C1 [Example 33, (S)-4-methyl-3-(1-(pyrazin-2-yl)pyrrolidin-3-yl)-N-(5-(trifluoromethyl)pyridin-3-yl)benzamide] | < 5 | < 5
10 | Cc1ccc(C(=O)Nc2cncc(C(F)(F)F)c2)cc1[C@@H]1CCN(c2cnn3ccccc23)C1 [Example 34, (S)-4-methyl-3-(1-(pyrazolo[1,5-a]pyridin-3-yl)pyrrolidin-3-yl)-N-(5-(trifluoromethyl)pyridin-3-yl)benzamide] | 5 to 25 | < 5
11 | Cc1ccc(C(=O)Nc2cncc(C(F)(F)F)c2)cc1[C@@H]1CCN(c2cnn3cccnc23)C1 [Example 35, (S)-4-methyl-3-(1-(pyrazolo[1,5-a]pyrimidin-3-yl)pyrrolidin-3-yl)-N-(5-(trifluoromethyl)pyridin-3-yl)benzamide] | < 5 | < 5
12 | Cc1ccc(C(=O)Nc2cncc(C(F)(F)F)c2)cc1[C@@H]1CCN(c2cnc3cccnn23)C1 [Example 36, (S)-3-(1-(imidazo[1,2-b]pyridazin-3-yl)pyrrolidin-3-yl)-4-methyl-N-(5-(trifluoromethyl)pyridin-3-yl)benzamide] | 5 to 25 | < 5
13 | Cc1ccc(C(=O)Nc2cncc(C(F)(F)F)c2)cc1[C@@H]1CCN(c2cnc3cnccn23)C1 [Example 37, (S)-3-(1-(imidazo[1,2-a]pyrazin-3-yl)pyrrolidin-3-yl)-4-methyl-N-(5-(trifluoromethyl)pyridin-3-yl)benzamide] | < 5 | < 5
14 | Cc1ccc(C(=O)Nc2cncc(C(F)(F)F)c2)cc1[C@@H]1CCN(c2cncc(C(=O)NC3COC3)c2)C1 [Example 38, (S)-5-(3-(2-methyl-5-((5-(trifluoromethyl)pyridin-3-yl)carbamoyl)phenyl)pyrrolidin-1-yl)-N-(oxetan-3-yl)nicotinamide] | < 5 | < 5
15 | Cc1ccc(C(=O)Nc2cncc(C(F)(F)F)c2)cc1[C@@H]1CCN(c2cncc(C(=O)N[C@H]3C[C@@H](O)C3)c2)C1 [Example 39, N-((1s,3R)-3-hydroxycyclobutyl)-5-((S)-3-(2-methyl-5-((5-(trifluoromethyl)pyridin-3-yl)carbamoyl)phenyl)pyrrolidin-1-yl)nicotinamide] | < 5 | < 5
16 | Cc1ccc(C(=O)Nc2cncc(C(F)(F)F)c2)cc1[C@@H]1CCN(c2cncc(C(=O)N3CCN(C)CC3)c2)C1 [Example 40, (S)-4-methyl-3-(1-(5-(4-methylpiperazine-1-carbonyl)pyridin-3-yl)pyrrolidin-3-yl)-N-(5-(trifluoromethyl)pyridin-3-yl)benzamide] | 5 to 25 | < 5
17 | Cc1ccc(C(=O)Nc2cncc(C(F)(F)F)c2)cc1[C@@H]1CCN(c2cnccc2C(=O)NC2COC2)C1 [Example 41, (S)-3-(3-(2-methyl-5-((5-(trifluoromethyl)pyridin-3-yl)carbamoyl)phenyl)pyrrolidin-1-yl)-N-(oxetan-3-yl)isonicotinamide] | 25 to 100 | < 5
18 | Cc1ccc(C(=O)Nc2cncc(C(F)(F)F)c2)cc1[C@@H]1CCN(c2cccnc2N)C1 [Example 42, (S)-3-(1-(2-aminopyridin-3-yl)pyrrolidin-3-yl)-4-methyl-N-(5-(trifluoromethyl)pyridin-3-yl)benzamide] | < 5 | < 5
19 | Cc1ccc(C(=O)Nc2cncc(C(F)(F)F)c2)cc1[C@@H]1CCN(c2cnc3[nH]ncc3c2)C1 [Example 43, 4-methyl-3-[(3S)-1-(1H-pyrazolo[3,4-b]pyridin-5-yl)pyrrolidin-3-yl]-N-[5-(trifluoromethyl)-3-pyridyl]benzamide] | < 5 | < 5
20 | Cc1ccc(C(=O)Nc2cncc(C(F)(F)F)c2)cc1N1CC(Oc2ccc(N)nc2)C1 [Example 44, 3-(3-((6-aminopyridin-3-yl)oxy)azetidin-1-yl)-4-methyl-N-(5-(trifluoromethyl)pyridin-3-yl)benzamide] | 25 to 100 | 5 to 25
21 | CC(=O)Nc1ccc(OC2CN(c3cc(C(=O)Nc4cncc(C(F)(F)F)c4)ccc3C)C2)cn1 [Example 45, 3-(3-((6-acetamidopyridin-3-yl)oxy)azetidin-1-yl)-4-methyl-N-(5-(trifluoromethyl)pyridin-3-yl)benzamide] | 5 to 25 | < 5
22 | COCC(=O)Nc1ccc(OC2CN(c3cc(C(=O)Nc4cncc(C(F)(F)F)c4)ccc3C)C2)cn1 [Example 46, 3-(3-((6-(2-methoxyacetamido)pyridin-3-yl)oxy)azetidin-1-yl)-4-methyl-N-(5-(trifluoromethyl)pyridin-3-yl)benzamide] | 25 to 100 | 5 to 25
